According to patent US7550451B2, “Progesterone receptor modulators with increased antigonadotropic activity for female birth control and hormone replacement therapy” (Bayer Schering Pharma AG, priority 2002, dated 2009):

Legend:
[1] = biological target: T1, Progesterone receptor (Oryctolagus cuniculus, UniProt P06186); assay: Receptor binding affinity, progesterone receptor (competitive binding, 3H-ORG 2058); conditions: Progesterone = 100%; uterus cytosol of estradiol-primed rabbit
T1 construct: Uterus cytosol of the estradiol-primed rabbit; from tissue; host or cells: uterus cytosol of estradiol-primed rabbit
T1 sequence (P06186 1-930): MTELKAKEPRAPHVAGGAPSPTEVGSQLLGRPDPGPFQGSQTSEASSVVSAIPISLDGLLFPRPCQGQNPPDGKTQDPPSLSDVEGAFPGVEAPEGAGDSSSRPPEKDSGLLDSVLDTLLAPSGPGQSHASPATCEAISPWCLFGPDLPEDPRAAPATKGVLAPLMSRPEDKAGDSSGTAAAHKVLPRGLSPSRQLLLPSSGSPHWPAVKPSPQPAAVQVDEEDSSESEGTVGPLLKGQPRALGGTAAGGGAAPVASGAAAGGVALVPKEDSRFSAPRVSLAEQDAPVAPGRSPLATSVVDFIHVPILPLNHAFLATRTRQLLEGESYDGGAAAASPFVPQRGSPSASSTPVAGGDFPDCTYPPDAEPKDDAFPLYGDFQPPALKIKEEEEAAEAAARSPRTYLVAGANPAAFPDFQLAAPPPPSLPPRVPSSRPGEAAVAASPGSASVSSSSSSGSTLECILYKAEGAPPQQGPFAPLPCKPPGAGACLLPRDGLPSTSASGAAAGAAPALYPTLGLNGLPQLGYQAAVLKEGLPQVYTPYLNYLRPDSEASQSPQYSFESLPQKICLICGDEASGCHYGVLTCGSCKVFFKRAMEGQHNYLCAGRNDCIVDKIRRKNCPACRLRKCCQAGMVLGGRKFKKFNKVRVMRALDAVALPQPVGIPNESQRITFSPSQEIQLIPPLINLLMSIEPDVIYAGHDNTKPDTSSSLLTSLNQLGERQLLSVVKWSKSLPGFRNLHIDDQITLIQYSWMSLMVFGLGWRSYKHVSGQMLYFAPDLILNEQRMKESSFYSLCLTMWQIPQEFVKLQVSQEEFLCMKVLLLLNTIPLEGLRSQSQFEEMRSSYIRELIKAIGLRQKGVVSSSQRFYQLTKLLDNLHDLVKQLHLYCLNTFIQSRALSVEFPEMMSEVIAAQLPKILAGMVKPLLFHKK
Description: (§1) The receptor binding affinity was determined by competitive binding of a specifically binding ^3H-labeled hormone (tracer) and the compound to be tested on receptors in the cytosol from animal target organs. In this case, receptor saturation and reaction equilibrium were sought.
(§2) The tracers and increasing concentrations of the compound to be tested (competitor) were co-incubated with the receptor-containing cytosol fraction at 0-4° C. over 18 hours. After separation of the unbonded tracer with carbon-dextran suspension, the receptor-bonded tracer portion was measured for each concentration, and the IC50 was determined from the concentration sequence. As a quotient of the IC50 values of the reference substance and the compound to be tested (×100%), the relative molar binding affinity (RBA) was calculated (RBA of the reference substance=100%).
Uterus cytosol of the estradiol-primed rabbit; homogenized in TED buffer (20 mmol of Tris/HCl, pH 7.4; 1 mmol of ethylenediamine tetraacetate, 2 mmol of dithiothreitol) with 250 mmol of saccharose; stored at −30° C. Tracer: ^3H-ORG 2058, 5 nmol; reference substance: progesterone.

[2] = biological target: T2, Androgen receptor (Rattus norvegicus, UniProt P15207); assay: Receptor binding affinity, androgen receptor (competitive binding, 3H-metribolone); conditions: prostate cytosol of castrated rat; for AR relative molar binding affinity (RBA) a) against RU 1881: reference RU 1881 (metribolone); for AR relative molar binding affinity (RBA) b) against dihydrotestosterone (DHT): reference dihydrotestosterone
T2 construct: Prostate cytosol of the castrated rat; from tissue; host or cells: prostate cytosol of castrated rat
T2 sequence (P15207 1-902): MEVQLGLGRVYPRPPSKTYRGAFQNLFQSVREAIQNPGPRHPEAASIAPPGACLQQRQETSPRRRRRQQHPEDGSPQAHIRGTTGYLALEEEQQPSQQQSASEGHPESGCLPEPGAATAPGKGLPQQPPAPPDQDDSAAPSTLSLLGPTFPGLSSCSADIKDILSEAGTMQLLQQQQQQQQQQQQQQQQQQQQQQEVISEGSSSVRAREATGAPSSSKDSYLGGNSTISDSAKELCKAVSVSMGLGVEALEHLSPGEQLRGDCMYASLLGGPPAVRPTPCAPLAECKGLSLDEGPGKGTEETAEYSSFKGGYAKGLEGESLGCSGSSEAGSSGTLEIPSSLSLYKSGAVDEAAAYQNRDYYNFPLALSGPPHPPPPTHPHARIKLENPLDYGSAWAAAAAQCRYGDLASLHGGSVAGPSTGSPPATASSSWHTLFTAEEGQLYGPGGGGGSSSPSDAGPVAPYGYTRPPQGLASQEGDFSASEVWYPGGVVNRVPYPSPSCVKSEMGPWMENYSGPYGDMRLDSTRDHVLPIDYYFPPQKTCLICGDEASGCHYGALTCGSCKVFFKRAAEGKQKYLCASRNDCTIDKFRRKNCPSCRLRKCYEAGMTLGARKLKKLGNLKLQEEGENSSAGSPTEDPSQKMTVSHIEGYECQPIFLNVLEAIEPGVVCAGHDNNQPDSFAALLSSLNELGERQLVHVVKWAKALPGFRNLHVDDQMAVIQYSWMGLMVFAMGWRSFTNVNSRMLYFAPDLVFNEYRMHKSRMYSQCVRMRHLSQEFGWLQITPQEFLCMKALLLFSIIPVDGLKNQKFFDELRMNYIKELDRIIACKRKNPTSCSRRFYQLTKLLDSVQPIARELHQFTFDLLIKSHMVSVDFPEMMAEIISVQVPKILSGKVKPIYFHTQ
Description: as §1, §2
Prostate cytosol of the castrated rat; prostates stored at −30° C.; buffer: TED with 10% glycerol as well as 2 μmol of triamcinolone acetonide. Tracer: ^3H-metribolone 4 nmol; reference substances: metribolone (RU 1881) or 5α-dihydrotestosterone.

[3] = biological target: T3, Glucocorticoid receptor (Rattus norvegicus, UniProt P06536); assay: Receptor binding affinity, glucocorticoid receptor (competitive binding, 3H-dexamethasone); conditions: Dexamethasone = 100%; thymus cytosol of adrenalectomized rat
T3 construct: Thymus cytosol of the adrenalectomized rat; from tissue; host or cells: thymus cytosol of adrenalectomized rat
T3 sequence (P06536 1-795): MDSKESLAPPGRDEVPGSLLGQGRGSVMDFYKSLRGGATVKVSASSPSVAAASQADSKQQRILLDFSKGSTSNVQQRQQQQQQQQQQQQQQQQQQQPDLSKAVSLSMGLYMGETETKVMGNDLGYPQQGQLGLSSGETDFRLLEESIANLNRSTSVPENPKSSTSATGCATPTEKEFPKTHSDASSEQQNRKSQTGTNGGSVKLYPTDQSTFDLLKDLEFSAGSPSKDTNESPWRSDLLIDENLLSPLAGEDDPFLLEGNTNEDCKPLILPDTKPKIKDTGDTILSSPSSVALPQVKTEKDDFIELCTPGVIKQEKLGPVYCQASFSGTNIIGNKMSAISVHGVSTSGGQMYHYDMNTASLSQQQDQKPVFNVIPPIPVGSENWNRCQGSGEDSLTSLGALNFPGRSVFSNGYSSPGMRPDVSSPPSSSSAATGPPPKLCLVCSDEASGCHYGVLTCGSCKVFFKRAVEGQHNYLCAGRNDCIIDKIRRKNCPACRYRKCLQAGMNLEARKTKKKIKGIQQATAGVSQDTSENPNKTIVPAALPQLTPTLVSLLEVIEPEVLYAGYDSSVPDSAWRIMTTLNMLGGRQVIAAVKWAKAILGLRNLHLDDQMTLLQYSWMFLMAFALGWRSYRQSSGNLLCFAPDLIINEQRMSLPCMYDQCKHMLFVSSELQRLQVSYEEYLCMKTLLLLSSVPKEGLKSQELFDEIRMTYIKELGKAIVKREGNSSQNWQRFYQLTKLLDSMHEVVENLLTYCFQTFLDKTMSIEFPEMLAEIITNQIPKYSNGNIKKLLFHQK
Description: as §1, §2
Thymus cytosol of the adrenalectomized rat, thymi stored at −30° C.; buffer: TED. Tracer: ^3H-Dexamethasone, 20 nmol; reference substance: dexamethasone.

Row | Compound | PR relative molar binding affinity (RBA) [1] | AR relative molar binding affinity (RBA) a) against RU 1881 [2] | AR relative molar binding affinity (RBA) b) against dihydrotestosterone (DHT) [2] | GR relative molar binding affinity (RBA) [3]
1 | 4-(4′-Bromo-17β-methoxy-3-oxoestra-4,9-dien-11β-yl)benzaldehyde-1(E)-oxime [Example 7] | 110% | a) 8.7% | b) 13.2% | 0.69%
2 | CC12CC(c3ccc(C=NO)cc3)C3=C4CCC(=O)C(Br)=C4CCC3C1CCC2(O)C(F)(F)F (stereo not drawn) [Example 8, 4-(4′-Bromo-17β-hydroxy-17α-trifluoromethyl-3-oxoestra-4,9-dien-11β-yl)benzaldehyde-1(E)-oxime] | 87% | a) 7.8% | b) 11.8% | 1.8%
3 | CC12CC(c3ccc(C=NO)cc3)C3=C4CCC(=O)C=C4CCC3C1CCC2(O)CBr (stereo not drawn) [Example 10, 4-(17α-Bromomethyl-17β-hydroxy-3-oxoestra-4,9-dien-11β-yl)benzaldehyde-1(E)-oxime] | 21% | a) 0.6% | b) 0.9% | 3%
4 | CC(=O)O[C@H]1CC[C@H]2[C@@H]3CCC4=C(Br)C(=O)CCC4=C3[C@@H](c3ccc(/C=N/O)cc3)C[C@]12C [Example 13, 4-(17β-Acetoxy-4′-bromo-3-oxoestra-4,9-dien-11β-yl)benzaldehyde-1-(E)oxime] | 45% | a) 6% | b) 10% | 0.35%
5 | CCNC(=O)O[C@H]1CC[C@H]2[C@@H]3CCC4=CC(=O)CCC4=C3[C@@H](c3ccc(/C=N/O)cc3)C[C@]12C [Example 4, 4-[17β-(N-Ethylamino)carbonyloxy-3-oxoestra-4,9-dien-11β-yl]benzaldehyde-1(E)-oxime] | 13% | a) 2.9% | b) 4.5% | 11%
6 | CCNC(=O)O/N=C/c1ccc([C@H]2C[C@@]3(C)[C@@H](CC[C@]3(C)O)[C@@H]3CCC4=CC(=O)CCC4=C32)cc1 [Example 9, 4-[17β-Hydroxy-17α-methyl-3-oxoestra-4,9-dien-11β-yl]benzaldehyde-1-(E)-[O-(ethylamino)-carbonyl]oxime] | 161% | a) 15% | b) 23% | 25%
7 | CC(=O)OC1CCC2C3CCC4=CC(=O)CCC4=C3C(c3ccc(C=NO)cc3)CC12C (stereo not drawn) [Example 3, 4-(17β-Acetoxy-3-oxoestra-4,9-dien-11β-yl)benzaldehyde-1-(E)-oxime] | 20% | – | – | 12%
8 | CC12CC(c3ccc(C=NO)cc3)C3=C4CCC(=O)C=C4CCC3C1C=CC2O (stereo not drawn) [Example 12, 4-(17β-Hydroxy-3-oxoestra-4,9,15-trien-11β-yl)benzaldehyde-1(E)-oxime] | 38% | a) 22% | b) 34% | 5%
9 | CCNC(=O)O/N=C/c1ccc([C@H]2C[C@]3(C)[C@@H](O)CC[C@H]3[C@@H]3CCC4=CC(=O)CCC4=C32)cc1 [Example 11, 4-[17β-Hydroxy-3-oxoestra-4,9-dien-11β-yl]benzaldehyde-1-(E)-[O-(ethylamino)-carbonyl]oxime] | 34% | a) 10% | b) 15% | 10%
10 | CC(=O)O/N=C/c1ccc([C@H]2C[C@]3(C)[C@@H](OC(C)=O)CC[C@H]3[C@@H]3CCC4=C(Br)C(=O)CCC4=C32)cc1 [Example 14, 4-(17β-Acetoxy-4′-bromo-3-oxoestra-4,9-dien-11β-yl)benzaldehyde-1-(E)-O-acetyloxime] | 23% | a) 6% | b) 10% | 0.3%
11 | CCO[C@H]1CC[C@H]2[C@@H]3CCC4=CC(=O)CCC4=C3[C@@H](c3ccc(/C=N/O)cc3)C[C@]12C [Example 15, 4-(17β-Ethoxy-3-oxoestra-4,9-dien-11β-yl)benzaldehyde-1(E)-oxime] | 143% | a) 13% | b) 21% | 17%
